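Each compound was tested at five concentrations against cells in 96-well plates for 48 hours. At the GI50, growth is halved. TGI is the concentration that stops growth completely.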
Columns and labels:
Test in all cases: DTP human tumour cell line panel, 48 h
T-47D breast = system: T-47D breast
TK-10 renal = system: TK-10 renal
NCI-H522 lung = system: NCI-H522 lung
MDA-MB-231 breast = system: MDA-MB-231 breast
NCI/ADR-RES ovarian = system: NCI/ADR-RES ovarian
HL-60(TB) leukemia = system: HL-60(TB) leukemia
SNB-75 CNS = system: SNB-75 CNS
MDA-MB-435 = system: MDA-MB-435
HS 578T breast = system: HS 578T breast

Row | Compound | TGI (T-47D breast) [µM] | TGI (TK-10 renal) [µM] | TGI (NCI-H522 lung) [µM] | TGI (MDA-MB-231 breast) [µM] | TGI (NCI/ADR-RES ovarian) [µM] | TGI (HL-60(TB) leukemia) [µM] | TGI (SNB-75 CNS) [µM] | TGI (MDA-MB-435) [µM] | TGI (HS 578T breast) [µM] | GI50 (T-47D breast) [µM] | GI50 (TK-10 renal) [µM] | GI50 (NCI-H522 lung) [µM] | GI50 (MDA-MB-231 breast) [µM] | GI50 (NCI/ADR-RES ovarian) [µM] | GI50 (HL-60(TB) leukemia) [µM] | GI50 (SNB-75 CNS) [µM] | GI50 (MDA-MB-435) [µM] | GI50 (HS 578T breast) [µM]
1 | COC(=O)NN(C(=O)OC)c1c(-c2ccccc2)nc(SC)n1N | > 100 | > 100 | > 100 | > 100 | > 100 | > 100 | > 100 | > 100 | > 100 |  |  |  |  |  |  |  |  | 
2 | C=C1[C@@H](O)C[C@@]23CC[C@@H]4[C@@]5(C)CC[C@@H](OC(C)=O)C(C)(C)[C@@H]5C[C@@H](OC5OC(COC(C)=O)C(O)C(O)C5O)[C@@]4(C)C2=CC[C@H]3[C@H]1C (stereo partly specified) | 19.2 | 21 | 21.1 | 21.4 | 35.3 | 4.86 | 16.1 | 15.3 | 22.4 |  |  |  |  |  |  |  |  | 
3 | COc1cc2c(cc1OC)C1c3ccccc3CCN1CC2 (stereo unspecified) | > 100 | > 100 | > 100 | > 100 | > 100 | 80.3 | > 100 | > 100 | > 100 |  |  |  |  |  |  |  |  | 
4 | C[n+]1c(-c2ccccc2)cc2/c(=C\c3ccc([N+](=O)[O-])cc3)c3ccccc3n21 |  | > 100 | 2.8 | 16.1 | > 100 | 3.07 | 15.6 | 14.4 | 4.04 |  |  |  |  |  |  |  |  | 
5 | COc1cc(C2c3cc4c(cc3OC(NN=C(C)C)C2C)OCO4)cc(OC)c1O (stereo unspecified) | > 100 | > 100 | 25.3 | > 100 | > 100 |  | 48.5 |  |  |  |  |  |  |  |  |  |  | 
6 | CC1(C)O[C@@H]2COC(=O)[C@@H]2O1 | > 100 | > 100 | > 100 | > 100 | > 100 | > 100 | > 100 | > 100 | > 100 |  |  |  |  |  |  |  |  | 
7 | CC(=O)N/N=C1/NN(C(C)=O)C2(S1)C(=O)Nc1ccc(Br)cc12 (stereo unspecified) | > 100 | > 100 | > 100 | > 100 | > 100 | > 100 | > 100 | > 100 | > 100 |  |  |  |  |  |  |  |  | 
8 | N#Cc1nc(-c2cc([N+](=O)[O-])cc([N+](=O)[O-])c2)oc1N | > 10 | > 10 | > 10 | > 10 | > 10 | > 10 | > 10 | > 10 | > 10 |  |  |  |  |  |  |  |  | 
9 | O=C1CCSSCCC(=O)NCCN1 | > 100 | > 100 | > 100 | > 100 | > 100 | > 100 |  | > 100 | > 100 |  |  |  |  |  |  |  |  | 
10 | COP(=O)(O)/C=C/C(NC(=O)C(Cl)(Cl)Cl)c1ccccc1 (stereo unspecified) | > 100 | > 100 | > 100 | > 100 | > 100 | > 100 | > 100 | > 100 | > 100 |  |  |  |  |  |  |  |  | 
11 | O=C(O)C1CC(c2ccc(F)cc2)=Nc2ccc(F)cc2S1 (stereo unspecified) | > 100 | > 100 | > 100 | > 100 | > 100 | > 100 | > 100 | > 100 | > 100 |  |  |  |  |  |  |  |  | 
12 | CC(=O)NS(=O)(=O)c1ccc(NC(=O)c2c3ccccc3nc3ccccc23)cc1 |  | > 100 | > 100 | > 100 | > 100 |  | > 100 | > 100 |  |  |  |  |  |  |  |  |  | 
13 | Cc1cc(C)c2c(=O)n(CN3CC4Nc5ccccc5C4C3)sc2n1 (stereo unspecified) | > 100 | 35.8 | 14.2 | 37.5 | > 100 | 63.2 |  | 42.2 | > 100 |  |  |  |  |  |  |  |  | 
14 | CCCCn1c2c(n(CCCC)c1=S)-c1c(n(CCCC)c(=S)n1CCCC)S[Se][Se]S2 | 2.04 | 30.5 | 0.479 | 7.59 | 53 |  | 31.5 | 39.1 | 44.2 |  |  |  |  |  |  |  |  | 
15 | CC(C)=C[C@@H]1C[C@H](n2cc(C)c(=O)[nH]c2=O)ON1CCO | > 100 | > 100 | > 100 | > 100 | > 100 | > 100 | > 100 | > 100 | > 100 |  |  |  |  |  |  |  |  | 
16 | Cc1ccc(S(=O)(=O)N2CCSCCSCCSCCSCC2)cc1 | 74.1 | > 74.5 | > 69.8 | 56.6 | 77.1 | > 100 | 29.8 | > 100 | > 53.1 |  |  |  |  |  |  |  |  | 
17 | COC(=O)c1c(C)cccc1/C=C1/Cc2c(C)cccc2C1=O | > 100 | > 100 | > 100 | > 100 | > 100 | > 100 | > 100 | > 100 | > 100 |  |  |  |  |  |  |  |  | 
18 | COc1ccc(/C(=N/O)c2ccccc2-c2nc3ccccc3c(=O)n2-c2ccc(S(=O)(=O)Nc3ncccn3)cc2)cc1C | 25.2 | > 31.6 | 23.7 | > 31.6 | > 31.6 | 20 | 26.6 | 27.3 | > 100 |  |  |  |  |  |  |  |  | 
19 | COc1ccc(N2C(=O)c3c4c(c5c([nH]c6ncccc65)c3C2=O)CCC(C(C)(C)C)C4)cc1 (stereo unspecified) | > 100 | > 100 | > 100 | > 100 | > 100 | > 100 | 32.8 | > 100 | 72.2 |  |  |  |  |  |  |  |  | 
20 | O=C1NCCCc2nonc21 | > 100 | > 100 |  | > 100 | > 100 | > 100 | > 100 | > 100 | > 100 |  |  |  |  |  |  |  |  | 
21 | Oc1ccc(-c2nnc3sc(-c4ccc(F)cc4)nn23)cc1 | > 100 | > 100 | > 100 | 46.8 | > 100 | > 100 | 43.3 | > 100 | 40.2 | 21 | 69.8 | 62 | 10.6 | 43.6 | > 100 | 22.8 | > 100 | 16.1
22 | O=C(NC(Cc1c[nH]c2ccccc12)C(=O)O)/C(=C/c1ccccc1O)NC(=O)c1ccccc1 (stereo unspecified) | > 100 | > 100 | > 100 | 65 | 39.7 | > 100 | 38.5 | > 100 | 73.3 |  |  |  |  |  |  |  |  | 
